# Patent US6653508B2, “3-amino-2-benzyl-1-phenylpropane derivatives” (Gruenenthal GmbH, priority 1999, dated 2003)
# Where a name gives a salt, the structure may show the parent alone.
# System: phenylquinone-induced writhing reactions in mice
# Assay: Phenylquinone-induced writhing test in mice
# Assay type: in vivo
# Settings: Mus musculus, iv; male mice, 10 mg/kg i.v.; phenylquinone i.p. 10 minutes after test substance; writhing counted 5-20 minutes after phenylquinone
# Procedure: The analgesic effectiveness of the compounds according to the invention is investigated in mice by the phenylquinone-induced writhing test as modified by I. C. Hendershot, J. Forsaith in J. Pharmacol. Exp. Ther. 125, 237-240 (1959). For this purpose male mice weighing 25-30 g are used. Groups in each case of 10 animals received per substance a dose, 10 minutes after intravenous administration of the test substances, 0.3 ml/mouse of a 0.02% aqueous solution of phenylquinone (phenylbenzoquinone, Sigma, Deisenhofen; solution prepared under the addition of 5% ethanol and storage in a water bath at 45° C.) applied intraperitoneally. The animals were then placed individually in observation cages. The number of pain-induced stretching movements (so-called writhing reactions=straightening of the body with stretching of the rear extremities) was counted with a push-button counter 5-20 minutes after administration of the phenyl quinone. Animals that had only received physiological saline solution with the phenylquinone served as controls.
# All substances were tested in a standard dose of 10 mg/kg. The percentage inhibition (% inhibition) of the writhing reactions achieved by a substance was calculated according to the following formula: [formula]
row,Structure (SMILES),inhibition in vivo at 10 mg/kg
1,"CN(C)CC(Cc1ccccc1)C(=O)c1cccc(OCc2ccccc2)c1 (racemic) [Example 2, (2RS)-1-(3-benzyloxyphenyl)-2-dimethylaminomethyl-3-phenylpropan-1-one hydrochloride]",85%
2,"CN(C)CC(Cc1ccccc1)C(=O)c1cccc(O)c1.Cl (racemic) [Example 6, (2RS)-2-benzyl-3-dimethylamino-1-(3-hydroxyphenyl)-propan-1-one hydrochloride]",84%
3,"COc1cc(OC)cc(C(=O)C(Cc2ccccc2)CN(C)C)c1 (racemic) [Example 7, (2RS)-2-benzyl-1-(3,5-dimethoxyphenyl)-3-dimethylamino-propan-1-one hydrochloride]",75%
4,"COc1ccc(OC)c(C(=O)C(Cc2ccccc2)CN(C)C)c1.Cl (racemic) [Example 8, (2RS)-2-benzyl-1-(2,5-dimethoxyphenyl)-3-dimethylaminopropan-1-one hydrochloride]",92%
5,"CN(C)CC(Cc1ccccc1)C(=O)c1cc(Cl)ccc1Cl (racemic) [Example 13, (2RS)-2-benzyl-1-(2,5-dichlorophenyl)-3-dimethylaminopropan-1-one hydrochloride]",70%
6,"CSc1cccc(C(=O)C(Cc2ccccc2)CN(C)C)c1.Cl (racemic) [Example 22, (2RS)-2-benzyl-3-dimethylamino-1-(3-methylsulfanylphenyl)-propan-1-one hydrochloride]",62%
7,"CN(C)CC(Cc1ccccc1)C(=O)c1cccc(C#N)c1.Cl (racemic) [Example 26, (2RS)-3-(2-benzyl-3-dimethylaminopropionyl)-benzonitrile hydrochloride]",79%
8,"CN(C)CC(Cc1ccccc1)C(=O)c1ccc2cc(O)ccc2c1.Cl (racemic) [Example 29, (2RS)-2-benzyl-3-dimethylamino-1-(6-hydroxynaphthalen-2-yl)-propan-1-one hydrochloride]",82%
9,"C/C=C(\c1cccc(OC)c1)C(Cc1ccccc1)CN(C)C (racemic) [Example 65, Z-(2RS)-[2-benzyl-3-(3-methoxyphenyl)-pent-3-enyl]-dimethyl-amine hydrochloride]",100%
10,"COc1ccc(C(=O)C(Cc2ccccc2)CN(C)C)c(C)c1C (racemic) [Example 71, (2RS)-2-benzyl-3-dimethylamino-1-(4-methoxy-2,3-dimethylphenyl)-propan-1-one hydrochloride]",94%
11,"COc1cccc(C(=O)C(Cc2cccc(Cl)c2)CN(C)C)c1 (racemic) [Example 72, (2RS)-2-(3-chlorobenzyl)-3-dimethylamino-1-(3-methoxyphenyl)-propan-1-one hydrochloride]",85%
12,"COc1cccc(C(=O)[C@@H](Cc2ccccc2)CN(C)C)c1 [Example 11, (−)-(S)-2-benzyl-3-dimethylamino-1-(3-methoxyphenyl)-propan-1-one hydrochloride]",90%

# System: not given
# Assay: not given
# Settings: not given
row,Structure (SMILES),melting point
1,CN(C)CC(Cc1ccccc1)C(=O)c1ccc2ccccc2c1.Cl (racemic),135.3 °C
2,CN(C)CC(Cc1ccccc1)C(=O)c1ccccc1O.Cl (racemic),123 °C
3,COc1ccc2cc(C(=O)C(Cc3ccccc3)CN(C)C)ccc2c1.Cl (racemic),88 to 95 °C
4,CN(C)CC(Cc1ccccc1)C(=O)c1ccccc1-c1ccccc1.Cl (racemic),134 to 134.8 °C
5,COc1cccc(C(=O)[C@@H](CN(C)C)[C@H](c2ccccc2)c2cccc(OC)c2)c1.Cl (racemic),139.1 °C
6,CC[C@@H](c1ccccc1)[C@H](CN(C)C)C(=O)c1cccc(OC)c1.Cl (racemic),89.5 °C
7,"CN(C)CC(Cc1ccccc1)C(=O)c1cccc(O)c1.Cl (racemic) [Example 6, (2RS)-2-benzyl-3-dimethylamino-1-(3-hydroxyphenyl)-propan-1-one hydrochloride]",169 °C
8,"COc1ccc(OC)c(C(=O)C(Cc2ccccc2)CN(C)C)c1.Cl (racemic) [Example 8, (2RS)-2-benzyl-1-(2,5-dimethoxyphenyl)-3-dimethylaminopropan-1-one hydrochloride]",149 °C
9,"CSc1cccc(C(=O)C(Cc2ccccc2)CN(C)C)c1.Cl (racemic) [Example 22, (2RS)-2-benzyl-3-dimethylamino-1-(3-methylsulfanylphenyl)-propan-1-one hydrochloride]",118 °C
10,"CN(C)CC(Cc1ccccc1)C(=O)c1cccc(C#N)c1.Cl (racemic) [Example 26, (2RS)-3-(2-benzyl-3-dimethylaminopropionyl)-benzonitrile hydrochloride]",154 °C
11,"CN(C)CC(Cc1ccccc1)C(=O)c1ccc2cc(O)ccc2c1.Cl (racemic) [Example 29, (2RS)-2-benzyl-3-dimethylamino-1-(6-hydroxynaphthalen-2-yl)-propan-1-one hydrochloride]",180 to 182 °C

# Now from value to compound:
row,melting point,Structure (SMILES)
1,114 °C,CN(C)CC(Cc1ccccc1)C(=O)c1cccc(Cl)c1Cl.Cl (racemic)
2,141 °C,COc1ccc(C(=O)C(Cc2ccccc2)CN(C)C)c(OC)c1OC.Cl (racemic)
3,125 °C,COc1cc(C(=O)C(Cc2ccccc2)CN(C)C)cc(OC)c1OC.Cl (racemic)
4,177 °C,CN(C)CC(Cc1ccccc1)C(=O)c1cc(O)ccc1O.Cl (racemic)
5,159 °C,COc1ccccc1C(=O)C(Cc1ccccc1)CN(C)C.Cl (racemic)
6,138.7 °C,CN(C)CC(Cc1ccccc1)C(=O)c1ccc2ccc3ccccc3c2c1.Cl (racemic)
7,150.3 °C,CN(C)CC(Cc1ccccc1)C(=O)c1ccc(F)cc1Cl.Cl (racemic)
8,111 °C,COc1cccc(C(=O)C(Cc2ccccc2F)CN(C)C)c1.Cl (racemic)
9,141 °C,COc1cccc(C(=O)C(Cc2cccc(F)c2)CN(C)C)c1.Cl (racemic)
10,138 °C,COc1cccc(C(=O)C(Cc2ccc(F)cc2)CN(C)C)c1.Cl (racemic)
11,134 °C,COc1ccc(CC(CN(C)C)C(=O)c2cccc(OC)c2)cc1.Cl (racemic)
12,104 °C,CN(C)CC(Cc1ccccc1)C(=O)c1cccc(C(F)(F)F)c1.Cl (racemic)
13,118 to 120 °C,CNCC(Cc1cccc(C)c1)C(=O)c1cccc(OC)c1.Cl (racemic)
14,128 °C,COc1cccc(C(=O)C(Cc2ccc(F)c(F)c2)CN(C)C)c1.Cl (racemic)
